Assays:
Experiment in all cases: KINOMEscan scanEDGE
Assay type in all cases: binding
Settings in all cases: read-out: Percent Control
[1] = target: T1, ABL1(E255K)-phosphorylated (Homo sapiens, UniProt P00519, E255K)
T1 construct: purchased Eurofins DiscoverX
Protocol: (§1) Kinome Scan. Compound HTW_A_8 fumarate was screened against 97 kinases at a single concentration of 10 μM at Eurofins DiscoverX using their KINOMEscan™ scanEDGE assay. The results are reported as the % activity relative to DMSO control, where lower values indicate higher affinity. See Table 1 for the full kinome profile.

ABL1-phosphorylated = target: T2, ABL1-phosphorylated (Homo sapiens, UniProt P00519)
T2 construct: purchased Eurofins DiscoverX
Protocol: as §1

ACVR1B = target: T3, ACVR1B (Homo sapiens, UniProt P36896)
T3 construct: purchased Eurofins DiscoverX
Protocol: as §1

ADCK3 = target: T4, ADCK3 (Homo sapiens, UniProt Q8NI60)
T4 construct: purchased Eurofins DiscoverX
Protocol: as §1

AXL = target: T5, AXL (Homo sapiens, UniProt P30530)
T5 construct: purchased Eurofins DiscoverX
Protocol: as §1

BTK = target: T6, BTK (Homo sapiens, UniProt Q06187)
T6 construct: purchased Eurofins DiscoverX
Protocol: as §1

CDK3 = target: T7, CDK3 (Homo sapiens, UniProt Q00526)
T7 construct: purchased Eurofins DiscoverX
Protocol: as §1

CSNK1G2 = target: T8, CSNK1G2 (Homo sapiens, UniProt P78368)
T8 construct: purchased Eurofins DiscoverX
Protocol: as §1

DYRK1B = target: T9, DYRK1B (Homo sapiens, UniProt Q9Y463)
T9 construct: purchased Eurofins DiscoverX
Protocol: as §1

INSR = target: T10, INSR (Homo sapiens, UniProt P06213)
T10 construct: purchased Eurofins DiscoverX
Protocol: as §1

JNK1 = target: T11, JNK1 (Homo sapiens, UniProt P45983)
T11 construct: purchased Eurofins DiscoverX
Protocol: as §1

JNK3 = target: T12, JNK3 (Homo sapiens, UniProt P53779)
T12 construct: purchased Eurofins DiscoverX
Protocol: as §1

KIT = target: T13, KIT (Homo sapiens, UniProt P10721)
T13 construct: purchased Eurofins DiscoverX
Protocol: as §1

KIT(V559D, T670I) = target: T14, KIT(V559D, T670I) (Homo sapiens, UniProt P10721, T670I/V559D)
T14 construct: purchased Eurofins DiscoverX
Protocol: as §1

LKB1 = target: T15, LKB1 (Homo sapiens, UniProt Q15831)
T15 construct: purchased Eurofins DiscoverX (KINOMEscan scanEDGE service)
Protocol: as §1

MARK3 = target: T16, MARK3 (Homo sapiens, UniProt P27448)
T16 construct: purchased Eurofins DiscoverX (KINOMEscan scanEDGE service)
Protocol: as §1

MEK2 = target: T17, MEK2 (Homo sapiens, UniProt P36507)
T17 construct: purchased Eurofins DiscoverX (KINOMEscan scanEDGE service)
Protocol: as §1

MKNK2 = target: T18, MKNK2 (Homo sapiens, UniProt Q9HBH9)
T18 construct: purchased Eurofins DiscoverX (KINOMEscan scanEDGE service)
Protocol: as §1

MLK1 = target: T19, MLK1 (Homo sapiens, UniProt P80192)
T19 construct: purchased Eurofins DiscoverX (KINOMEscan scanEDGE service)
Protocol: as §1

PAK2 = target: T20, PAK2 (Homo sapiens, UniProt Q13177)
T20 construct: purchased Eurofins DiscoverX (KINOMEscan scanEDGE service)
Protocol: as §1

PDGFRA = target: T21, PDGFRA (Homo sapiens, UniProt P16234)
T21 construct: purchased Eurofins DiscoverX (KINOMEscan scanEDGE service)
Protocol: as §1

PDPK1 = target: T22, PDPK1 (Homo sapiens, UniProt O15530)
T22 construct: purchased Eurofins DiscoverX (KINOMEscan scanEDGE service)
Protocol: as §1

PIM1 = target: T23, PIM1 (Homo sapiens, UniProt P11309)
T23 construct: purchased Eurofins DiscoverX (KINOMEscan scanEDGE service)
Protocol: as §1

PIM2 = target: T24, PIM2 (Homo sapiens, UniProt Q9P1W9)
T24 construct: purchased Eurofins DiscoverX (KINOMEscan scanEDGE service)
Protocol: as §1

PIM3 = target: T25, PIM3 (Homo sapiens, UniProt Q86V86)
T25 construct: purchased Eurofins DiscoverX (KINOMEscan scanEDGE service)
Protocol: as §1

PKAC-alpha = target: T26, PKAC-alpha (Homo sapiens, UniProt P17612)
T26 construct: purchased Eurofins DiscoverX KINOMEscan scanEDGE
Protocol: as §1

PLK1 = target: T27, PLK1 (Homo sapiens, UniProt P53350)
T27 construct: purchased Eurofins DiscoverX KINOMEscan scanEDGE
Protocol: as §1

PLK4 = target: T28, PLK4 (Homo sapiens, UniProt O00444)
T28 construct: purchased Eurofins DiscoverX KINOMEscan scanEDGE
Protocol: as §1

RIOK2 = target: T29, RIOK2 (Homo sapiens, UniProt Q9BVS4)
T29 construct: purchased Eurofins DiscoverX KINOMEscan scanEDGE
Protocol: as §1

[2] = target: T30, RSK2(Kin.Dom.1-N-terminal) (Homo sapiens, UniProt P51812)
T30 construct: RSK2(Kin.Dom.1-N-terminal); purchased Eurofins DiscoverX KINOMEscan scanEDGE
Protocol: as §1

SRC = target: T31, SRC (Homo sapiens, UniProt P12931)
T31 construct: purchased Eurofins DiscoverX KINOMEscan scanEDGE
Protocol: as §1

SRPK3 = target: T32, SRPK3 (Homo sapiens, UniProt Q9UPE1)
T32 construct: purchased Eurofins DiscoverX KINOMEscan scanEDGE
Protocol: as §1

TSSK1B = target: T33, TSSK1B (Homo sapiens, UniProt Q9BXA7)
T33 construct: purchased Eurofins DiscoverX KINOMEscan scanEDGE
Protocol: as §1

[3] = target: T34, TYK2(JH1domain-catalytic) (Homo sapiens, UniProt P29597)
T34 construct: TYK2(JH1domain-catalytic); purchased Eurofins DiscoverX KINOMEscan scanEDGE
Protocol: as §1

ULK2 = target: T35, ULK2 (Homo sapiens, UniProt Q8IYT8)
T35 construct: purchased Eurofins DiscoverX KINOMEscan scanEDGE
Protocol: as §1

VEGFR2 = target: T36, VEGFR2 (Homo sapiens, UniProt P35968)
T36 construct: purchased Eurofins DiscoverX KINOMEscan scanEDGE
Protocol: as §1

ZAP70 = target: T37, ZAP70 (Homo sapiens, UniProt P43403)
T37 construct: purchased Eurofins DiscoverX KINOMEscan scanEDGE
Protocol: as §1

p38-alpha = target: T38, p38-alpha (Homo sapiens, UniProt Q16539)
T38 construct: purchased Eurofins DiscoverX (KINOMEscan scanEDGE service)
Protocol: as §1

T18 sequence (Q9HBH9 whole entry): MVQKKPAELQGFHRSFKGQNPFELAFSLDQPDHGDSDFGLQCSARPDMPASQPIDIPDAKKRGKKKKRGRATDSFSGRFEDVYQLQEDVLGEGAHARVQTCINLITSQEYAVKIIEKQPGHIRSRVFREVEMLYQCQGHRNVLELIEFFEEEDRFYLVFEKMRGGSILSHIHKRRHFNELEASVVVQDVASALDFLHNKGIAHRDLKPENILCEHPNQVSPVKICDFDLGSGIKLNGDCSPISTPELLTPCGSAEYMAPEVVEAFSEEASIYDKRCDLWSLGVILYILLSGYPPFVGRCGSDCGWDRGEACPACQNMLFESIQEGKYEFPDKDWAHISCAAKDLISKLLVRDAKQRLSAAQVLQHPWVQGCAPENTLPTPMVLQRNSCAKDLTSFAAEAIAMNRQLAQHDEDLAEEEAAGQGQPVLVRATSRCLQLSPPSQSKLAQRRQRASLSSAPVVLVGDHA
T12 sequence (P53779 whole entry): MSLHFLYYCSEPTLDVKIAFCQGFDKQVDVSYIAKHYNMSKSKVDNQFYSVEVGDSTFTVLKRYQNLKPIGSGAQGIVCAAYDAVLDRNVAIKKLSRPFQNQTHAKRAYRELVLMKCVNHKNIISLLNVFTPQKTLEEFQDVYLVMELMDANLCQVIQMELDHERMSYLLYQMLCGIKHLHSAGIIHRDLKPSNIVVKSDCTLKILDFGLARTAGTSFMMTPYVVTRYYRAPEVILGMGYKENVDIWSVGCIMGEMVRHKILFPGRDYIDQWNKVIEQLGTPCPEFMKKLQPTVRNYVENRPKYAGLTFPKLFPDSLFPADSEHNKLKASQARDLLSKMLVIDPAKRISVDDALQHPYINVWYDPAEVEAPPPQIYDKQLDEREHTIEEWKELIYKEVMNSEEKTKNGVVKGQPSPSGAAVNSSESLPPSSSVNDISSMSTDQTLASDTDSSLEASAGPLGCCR
T20 sequence (Q13177 whole entry): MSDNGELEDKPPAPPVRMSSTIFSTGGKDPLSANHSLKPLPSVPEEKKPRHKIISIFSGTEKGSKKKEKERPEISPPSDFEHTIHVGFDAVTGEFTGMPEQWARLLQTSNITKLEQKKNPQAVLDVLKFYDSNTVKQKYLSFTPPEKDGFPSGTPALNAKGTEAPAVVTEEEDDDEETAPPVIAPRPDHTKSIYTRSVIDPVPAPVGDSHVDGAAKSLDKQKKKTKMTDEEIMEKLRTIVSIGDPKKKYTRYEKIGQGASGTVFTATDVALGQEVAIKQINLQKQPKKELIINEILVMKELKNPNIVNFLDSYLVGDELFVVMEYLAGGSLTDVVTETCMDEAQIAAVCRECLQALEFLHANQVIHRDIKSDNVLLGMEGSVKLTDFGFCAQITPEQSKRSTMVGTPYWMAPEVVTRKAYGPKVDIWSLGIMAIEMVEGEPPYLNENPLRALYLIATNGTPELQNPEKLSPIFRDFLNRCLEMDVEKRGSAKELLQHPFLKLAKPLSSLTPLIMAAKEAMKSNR
T31 sequence (P12931 whole entry): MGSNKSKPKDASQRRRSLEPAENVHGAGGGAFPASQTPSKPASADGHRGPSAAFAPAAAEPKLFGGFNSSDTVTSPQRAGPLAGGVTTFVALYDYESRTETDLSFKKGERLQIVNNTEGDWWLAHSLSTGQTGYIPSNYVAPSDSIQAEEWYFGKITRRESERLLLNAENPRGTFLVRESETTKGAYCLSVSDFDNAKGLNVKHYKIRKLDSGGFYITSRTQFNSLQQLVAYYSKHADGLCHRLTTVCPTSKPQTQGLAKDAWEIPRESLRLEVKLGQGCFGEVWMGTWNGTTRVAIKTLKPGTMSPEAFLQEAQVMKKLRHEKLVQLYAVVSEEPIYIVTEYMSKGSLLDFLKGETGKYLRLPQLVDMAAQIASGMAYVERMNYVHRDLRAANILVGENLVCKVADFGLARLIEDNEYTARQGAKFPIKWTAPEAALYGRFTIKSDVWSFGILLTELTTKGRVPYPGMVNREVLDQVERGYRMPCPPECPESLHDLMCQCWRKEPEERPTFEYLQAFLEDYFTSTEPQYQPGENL
T5 sequence (P30530 26-894): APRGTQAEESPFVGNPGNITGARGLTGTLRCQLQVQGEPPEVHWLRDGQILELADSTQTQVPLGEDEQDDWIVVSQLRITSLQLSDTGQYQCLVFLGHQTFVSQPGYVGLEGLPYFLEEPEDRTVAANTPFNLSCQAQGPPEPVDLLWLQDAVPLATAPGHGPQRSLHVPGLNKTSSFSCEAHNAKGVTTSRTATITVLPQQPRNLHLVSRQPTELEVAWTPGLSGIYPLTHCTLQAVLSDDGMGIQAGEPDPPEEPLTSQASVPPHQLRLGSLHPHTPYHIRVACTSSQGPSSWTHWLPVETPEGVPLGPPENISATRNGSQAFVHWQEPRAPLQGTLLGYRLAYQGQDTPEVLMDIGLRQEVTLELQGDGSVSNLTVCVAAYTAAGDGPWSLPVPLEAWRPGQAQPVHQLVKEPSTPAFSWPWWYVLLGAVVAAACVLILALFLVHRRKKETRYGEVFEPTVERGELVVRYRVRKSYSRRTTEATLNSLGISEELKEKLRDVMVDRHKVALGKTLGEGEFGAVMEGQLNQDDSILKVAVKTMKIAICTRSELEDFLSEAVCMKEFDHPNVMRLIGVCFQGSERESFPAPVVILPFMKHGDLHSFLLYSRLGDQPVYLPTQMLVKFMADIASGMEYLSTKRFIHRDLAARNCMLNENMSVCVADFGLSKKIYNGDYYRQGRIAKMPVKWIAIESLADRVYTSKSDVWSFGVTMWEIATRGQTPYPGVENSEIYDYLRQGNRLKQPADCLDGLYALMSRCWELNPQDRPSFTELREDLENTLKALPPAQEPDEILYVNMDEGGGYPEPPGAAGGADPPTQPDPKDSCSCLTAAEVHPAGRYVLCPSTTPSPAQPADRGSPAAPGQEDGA
T3 sequence (P36896 24-505): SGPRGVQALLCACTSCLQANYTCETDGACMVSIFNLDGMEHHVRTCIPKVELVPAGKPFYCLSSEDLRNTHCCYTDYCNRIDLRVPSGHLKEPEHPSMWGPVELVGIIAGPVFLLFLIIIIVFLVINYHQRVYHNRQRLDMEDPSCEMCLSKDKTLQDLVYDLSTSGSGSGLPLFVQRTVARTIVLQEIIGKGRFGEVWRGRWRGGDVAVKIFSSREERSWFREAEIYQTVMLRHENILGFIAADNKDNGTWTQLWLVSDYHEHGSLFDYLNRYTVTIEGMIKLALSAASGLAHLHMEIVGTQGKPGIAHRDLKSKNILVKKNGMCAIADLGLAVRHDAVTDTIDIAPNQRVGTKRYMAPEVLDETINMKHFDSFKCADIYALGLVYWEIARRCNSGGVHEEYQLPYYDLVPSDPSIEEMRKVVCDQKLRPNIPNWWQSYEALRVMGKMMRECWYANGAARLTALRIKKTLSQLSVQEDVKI
T35 sequence (Q8IYT8 whole entry): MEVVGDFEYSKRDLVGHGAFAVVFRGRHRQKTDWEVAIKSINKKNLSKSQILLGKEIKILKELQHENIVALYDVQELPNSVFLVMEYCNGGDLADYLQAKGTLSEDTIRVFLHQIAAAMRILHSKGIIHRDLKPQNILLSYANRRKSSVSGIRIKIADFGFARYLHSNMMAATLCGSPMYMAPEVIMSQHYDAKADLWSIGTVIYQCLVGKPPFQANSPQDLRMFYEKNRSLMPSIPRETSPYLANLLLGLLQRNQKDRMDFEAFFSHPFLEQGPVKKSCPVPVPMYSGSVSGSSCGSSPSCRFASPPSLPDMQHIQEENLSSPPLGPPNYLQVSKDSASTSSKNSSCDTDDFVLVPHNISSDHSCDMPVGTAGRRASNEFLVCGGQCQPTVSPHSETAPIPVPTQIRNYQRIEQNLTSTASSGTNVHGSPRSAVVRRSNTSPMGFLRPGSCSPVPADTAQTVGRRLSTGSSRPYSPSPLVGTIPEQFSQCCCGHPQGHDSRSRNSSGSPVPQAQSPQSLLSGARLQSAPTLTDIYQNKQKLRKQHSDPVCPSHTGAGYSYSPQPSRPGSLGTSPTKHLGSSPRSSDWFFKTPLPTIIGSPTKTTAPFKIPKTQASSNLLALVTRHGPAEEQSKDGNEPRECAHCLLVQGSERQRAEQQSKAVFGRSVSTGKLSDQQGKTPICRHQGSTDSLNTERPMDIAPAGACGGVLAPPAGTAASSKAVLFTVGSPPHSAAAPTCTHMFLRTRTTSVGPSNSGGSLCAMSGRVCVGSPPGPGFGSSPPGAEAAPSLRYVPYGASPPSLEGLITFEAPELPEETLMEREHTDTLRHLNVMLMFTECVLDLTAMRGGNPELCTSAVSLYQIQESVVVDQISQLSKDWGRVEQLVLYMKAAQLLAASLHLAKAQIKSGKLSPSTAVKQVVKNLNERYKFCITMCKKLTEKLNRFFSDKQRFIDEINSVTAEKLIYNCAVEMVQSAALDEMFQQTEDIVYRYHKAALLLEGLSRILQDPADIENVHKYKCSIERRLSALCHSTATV
T38 sequence (Q16539 whole entry): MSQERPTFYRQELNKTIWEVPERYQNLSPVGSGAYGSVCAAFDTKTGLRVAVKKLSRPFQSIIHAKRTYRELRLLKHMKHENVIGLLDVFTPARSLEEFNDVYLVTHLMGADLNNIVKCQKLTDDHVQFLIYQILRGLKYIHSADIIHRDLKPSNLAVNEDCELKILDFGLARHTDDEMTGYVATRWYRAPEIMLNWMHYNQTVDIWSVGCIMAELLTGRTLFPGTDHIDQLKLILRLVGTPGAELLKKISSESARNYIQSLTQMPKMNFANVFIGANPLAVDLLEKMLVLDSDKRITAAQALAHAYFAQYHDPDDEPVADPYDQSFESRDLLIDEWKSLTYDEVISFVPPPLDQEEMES
T34 sequence (P29597 897-1176 limits assumed): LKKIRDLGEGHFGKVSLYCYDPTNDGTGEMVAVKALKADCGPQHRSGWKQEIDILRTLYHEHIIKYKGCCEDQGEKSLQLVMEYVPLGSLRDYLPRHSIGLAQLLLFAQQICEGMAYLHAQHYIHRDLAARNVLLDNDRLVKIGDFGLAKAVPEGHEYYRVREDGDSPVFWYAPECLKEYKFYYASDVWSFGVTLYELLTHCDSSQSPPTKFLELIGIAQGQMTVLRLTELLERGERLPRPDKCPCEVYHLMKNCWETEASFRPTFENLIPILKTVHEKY

COc1ccc2c3ccnc(C)c3n(CCN(C)C)c2c1.O=C(O)/C=C/C(=O)O [HTW_A_8 fumarate, 2-(7-methoxy-1-methyl-9H-pyrido[3,4-b]indol-9-yl)-N,N-dimethylethan-1-amine Fumarate Salt (2:3)]
remaining binding at 10 µM [1]: 79% | remaining binding at 10 µM (ABL1-phosphorylated): 81% | remaining binding at 10 µM (ACVR1B): 83% | remaining binding at 10 µM (ADCK3): 100% | remaining binding at 10 µM (AXL): 97% | remaining binding at 10 µM (BTK): 100% | remaining binding at 10 µM (CDK3): 91% | remaining binding at 10 µM (CSNK1G2): 86% | remaining binding at 10 µM (DYRK1B): 10% | remaining binding at 10 µM (INSR): 100% | remaining binding at 10 µM (JNK1): 100% | remaining binding at 10 µM (JNK3): 91% | remaining binding at 10 µM (KIT): 100% | remaining binding at 10 µM (KIT(V559D, T670I)): 89% | remaining binding at 10 µM (LKB1): 71% | remaining binding at 10 µM (MARK3): 100% | remaining binding at 10 µM (MEK2): 82% | remaining binding at 10 µM (MKNK2): 100% | remaining binding at 10 µM (MLK1): 91% | remaining binding at 10 µM (PAK2): 96% | remaining binding at 10 µM (PDGFRA): 100% | remaining binding at 10 µM (PDPK1): 76% | remaining binding at 10 µM (PIM1): 94% | remaining binding at 10 µM (PIM2): 84% | remaining binding at 10 µM (PIM3): 96% | remaining binding at 10 µM (PKAC-alpha): 97% | remaining binding at 10 µM (PLK1): 100% | remaining binding at 10 µM (PLK4): 81% | remaining binding at 10 µM (RIOK2): 83% | remaining binding at 10 µM [2]: 99% | remaining binding at 10 µM (SRC): 99% | remaining binding at 10 µM (SRPK3): 81% | remaining binding at 10 µM (TSSK1B): 100% | remaining binding at 10 µM [3]: 97% | remaining binding at 10 µM (ULK2): 100% | remaining binding at 10 µM (VEGFR2): 100% | remaining binding at 10 µM (ZAP70): 93% | remaining binding at 10 µM (p38-alpha): 100%

Reference: patent US20260284018A1, “DUAL INHIBITORS OF DYRK1A AND 5-HT2 FOR TREATING A BRAIN DISORDER” (THE REGENTS OF THE UNIVERSITY OF CALIFORNIA, priority 2023, published 2026)
